Results reported in patent US10668174B2, “Organ protection in PSMA-targeted radionuclide therapy of prostate cancer” (Molecular Insight Pharmaceuticals, Inc., priority 2014, dated 2020).
Like-named read-outs stand apart in the source and are kept apart here. Each block holds one molecule with its values, some of them ahead of it.

Tests used:
[1] = doses of up to 750 mg (~10 mg/kg), 25 healthy subjects, mean body weight 71 kg; cited from earlier work
[2] = PET-based dosimetry; cited from earlier work
PSMA = conditions: simultaneous coinjection of 50 mg/kg PMPA; cited from earlier work
LNCaP tumors = assay: Example 1: planar scintigraphy of 125I-MIP-1095, PMPA injected 16 hours later; format: in vivo, BALB/c nude mice
Protocol: Mice bearing LNCaP tumors of 1.5 cm diameter were injected via the tail vein with 37 MBq of ^125I-MIP-1095 in 100 μl at a specific activity of >1,000 mCi/[…]. Mice were imaged at a baseline time of 16 hours post injection giving enough time for tracer clearance from the blood stream and kidney calices.

LNCaP tumor = assay: Example 3: 68Ga-MIP-1558 animal PET, PMPA after 1 hour baseline scan; format: in vivo, BALB/c nude mice; conditions: for kidney uptake SUVmax of 68Ga-MIP1558: PMPA 50 mg/kg; for mean tumor uptake SUVmax of 68Ga-MIP1558: after PMPA 50 mg/kg
Protocol: (§1) MIP-1558 was evaluated after labeling with ^68Ga and imaging in an animal PET. […] Both tumor and kidney uptake was determined in a volume of interest (VOI).

[3] = Example 3: serial 68Ga-MIP-1558 PET of the salivary region with saline or PMPA; format: in vivo; conditions: rats, PMPA 10 mg/kg
Protocol: as §1

[4] = group 2, PMPA 0.5 mg/kg IV 16 hours post tracer
[5] = groups 3, 4 and 5, 0.05, 0.15 and 0.5 mg/kg

Protocol for LNCaP xenografts: Blood and tissues were collected 18 hours after intravenous injection of ^125I-MIP-1095 (2 hours after displacing agent injections). Gamma-counter readouts were obtained for each sample and expressed as percent injected dose per gram of tissue using gamma-counter readout of the dosing solution as a reference.
The dosing solution was prepared fresh the day of administration.
Cold MIP-1095 was stored protected from light at −80° C. until use. The compound was formulated in a vehicle of sterile saline. For dosing of the 0.50 mg/kg group, the cold MIP-1095 was placed into a sterile vial and the appropriate amount of saline was added and mixed well by vortexing to form a clear solution with a pH value of 6.96. Dosing solutions for the 0.15 mg/kg and 0.05 mg/kg groups were prepared by direct (not serial) dilution of the dosing solution from the 0.5 mg/kg group with complete vehicle. The dosing solutions were prepared fresh the day of administration.
For dosing, the stock solution (colorless) was thawed in a 37° C. water bath and diluted 1:1 with sterile saline for a fixed 0.1 mCi/ml solution for dosing.
The pre-implantation cell viability was 97%. […] The cell suspension was maintained on wet ice during implantation. Following implantation, an aliquot of the remaining cells was diluted with a trypan blue solution and counted to determine the post-implantation cell viability (96%).
Test animals were implanted subcutaneously, high in the axilla (just under the fore limb) on Day 0 with 5.0E+06 cells in 0.2 ml of 50% serum-free medium:50% Matrigel® using a 27-gauge needle and syringe.
All mice were sorted into study groups based on caliper measurement estimation of tumor burden. The mice were distributed to ensure that the mean tumor burden for all groups was within 10% of the overall mean tumor burden for the study population. Treatment began on Day 25. Mice were administered test agent via intravenous injections. The mice were administered a fixed volume injection of 100 μl (approximately 4 ml/kg) via the tail vein, using a 28-gauge needle and insulin syringe. A fresh needle and syringe was used for each mouse.
Group 1—^125I-MIP-1095+Saline, 0.4 mCi/kg (0.005 mg/kg)+100 μl fixed volume, IV+IV, “Control”; test article at 0 hours, saline 16 hours post test article.

SMILES: O=C(O)CCC(CCCS)C(=O)O (stereo not drawn) [2-MPPA, 2-(3-mercaptopropyl)pentanedioic acid]
- safety and tolerability [1]: safe and generally well tolerated

SMILES: O=C(O)CC[C@H](NC(=O)N[C@@H](CCCCNC(=O)Nc1ccc([123I])cc1)C(=O)O)C(=O)O [124I-MIP1095]
- off-target radiation dose, kidneys [2]: 1.4 mSv/MBq
- off-target radiation dose, liver [2]: 1.7 mSv/MBq
- off-target radiation dose, salivary glands [2]: 3.8 mSv/MBq
- radiation dose, red marrow [2]: 0.37 mSv/MBq

- exposure in all other tissues and organs (including salivary glands) (LNCaP xenografts; male, Taconic Nude (CrTac:NCr-Foxn1nu), mouse, in vivo, 18 h): less than 1 % of ID/g
- exposure in LNCaP tumors relative to other tissues (LNCaP xenografts; mouse, in vivo, iv): highest exposure
SMILES: O=C(O)CC[C@H](NC(=O)N[C@@H](CCCCNC(=O)Nc1ccc([123I])cc1)C(=O)O)C(=O)O [125I-MIP-1095]

- washout from the kidneys without intervention (LNCaP; mouse, in vivo): fast washout
SMILES: O=C(O)CC[C@H](NC(=O)N[C@@H](CCC(=O)N[C@@H](CCCCN(Cc1nccn1CC(=O)N(CC(=O)O)CC(=O)O)Cc1nccn1CC(=O)N(CC(=O)O)CC(=O)O)C(=O)O)C(=O)O)C(=O)O [MIP-1404]

SMILES: O=C(O)CCC(CP(=O)(O)O)C(=O)O (stereo not drawn) [PMPA, 2-(phosphonomethyl)pentanedioic acid]
- difference in MIP-1404 tumor uptake vs controls (LNCaP; PMPA 50 mg/kg): not significant
- washout of MIP-1404 from kidney vs controls (LNCaP; PMPA 50 mg/kg after baseline scan, at 2 and 4 hours): significantly (p<0.01) enhanced
- blocking of radiolabeled MIP-1095 binding sites in tumor and kidneys (PSMA): complete blocking
- residual kidney uptake of MIP-1404, % of baseline (PMPA 1 mg/kg, 2 hours): 13%
- residual kidney uptake of MIP-1404, % of baseline (PMPA 1 mg/kg, 4 hours): 9%
- residual kidney uptake of MIP-1404, % of baseline (PMPA 10 mg/kg, 2 hours): 15%
- residual kidney uptake of MIP-1404, % of baseline (PMPA 10 mg/kg, 4 hours): 10%
- residual kidney uptake of MIP-1404, % of baseline (PMPA 50 mg/kg, 2 hours): 11%
- residual kidney uptake of MIP-1404, % of baseline (PMPA 50 mg/kg, 4 hours): 7%
- residual tumor uptake of 125I-MIP-1095, % of 16 hour baseline (LNCaP tumors; 2 hours after PMPA 0.2 mg/kg): 98%
- residual tumor uptake of 125I-MIP-1095, % of 16 hour baseline (LNCaP tumors; 2 hours after PMPA 1 mg/kg): 93%
- residual tumor uptake of 125I-MIP-1095, % of 16 hour baseline (LNCaP tumors; 2 hours after PMPA 10 mg/kg): 77%
- residual tumor uptake of 125I-MIP-1095, % of 16 hour baseline (LNCaP tumors; 2 hours after PMPA 50 mg/kg): 75%
- decrease in tumor uptake (LNCaP tumors; PMPA 0.2 mg/kg): < 5%
- renal displacement of tracer (LNCaP tumors; PMPA 0.2 mg/kg (lower dose)): only sub-totally displaced
- displacement of 125I-MIP-1095 from the kidneys (LNCaP tumors; PMPA 0.2 mg/kg, 16 hours after tracer): high significant (p<0.01) displacement
- effect on tumor uptake (LNCaP tumors; PMPA 1.0 mg/kg): < 10%
- renal displacement of tracer (LNCaP tumors; PMPA 1.0 mg/kg): near total renal displacement
- kidney washout of 125I-MIP-1095 vs 0.2 mg/kg dose (LNCaP tumors; PMPA 1 mg/kg, p<0.01): even higher kidney washout
- displacement of renal activity of 125I-MIP-1095 (LNCaP tumors; PMPA 16 hours after MIP-1095, all PMPA doses (0.2-50 mg/kg)): rapid and quantitative relevant displacement
- kidney-protective effect vs 1 mg/kg (LNCaP tumors; PMPA doses greater than 1 mg/kg (10, 50 mg/kg)): did not improve the kidney-protective effect
- kidney uptake SUVmax of 68Ga-MIP1558 (LNCaP tumor; 2 hours post injection): 1.87
- kidney uptake SUVmax of 68Ga-MIP1558 (LNCaP tumor; 3 hours post injection): 1.77
- mean tumor uptake SUVmax of 68Ga-MIP1558 (LNCaP tumor; 2 hours post injection): 0.40
- mean tumor uptake SUVmax of 68Ga-MIP1558 (LNCaP tumor; 3 hours post injection): 0.39
- change of salivary region uptake due to the PMPA intervention [3]: there does not appear to be a measurable change
- salivary region SUVmax of 68Ga-MIP-1558, mean ([3]; 1 hour post injection): 0.82
- salivary region SUVmax of 68Ga-MIP-1558, mean ([3]; 3 hours post injection): 0.23
- exposure of 125I-MIP-1095 in LNCaP tumors and all other organs and tissues (LNCaP xenografts; [4]): little changed
- exposure of 125I-MIP-1095 in the kidneys (LNCaP xenografts; [4]): greatly reduced

SMILES: O=C(O)CC[C@H](NC(=O)N[C@@H](CCCCNC(=O)Nc1ccc(I)cc1)C(=O)O)C(=O)O [cold MIP-1095]
- exposure in other organs (LNCaP xenografts; group 4 (0.15 mg/kg)): little changed
- reduction of LNCaP tumors exposure compared to negative control (LNCaP xenografts; group 4 (0.15 mg/kg)): 1.2 fold
- reduction of kidney exposure compared to negative control (LNCaP xenografts; group 4 (0.15 mg/kg)): 5 fold
- 125I-MIP-1095 kidney exposure (LNCaP xenografts; [5]): dose-dependently reduced
- LNCaP tumors exposure (LNCaP xenografts; [5]): dose-dependent decrease
- liver, stomach, large and small intestines exposure (LNCaP xenografts; [5]): dose-dependent increase
- reduction in kidney exposure compared with positive control (LNCaP xenografts; highest dose (0.5 mg/kg)): equivalent to the one observed for positive control
